Test results from patent US5686454A, “Camphorcarbonyl” (Merck & Co., Inc., priority 1996, dated 1997).

Target: T1, uterine OT receptors (Rattus norvegicus, UniProt P70536)
T1 construct: crude membrane preparation of uteri; from tissue; host or cells: uterus of DES-treated rats, crude membranes
T1 sequence (P70536 1-388): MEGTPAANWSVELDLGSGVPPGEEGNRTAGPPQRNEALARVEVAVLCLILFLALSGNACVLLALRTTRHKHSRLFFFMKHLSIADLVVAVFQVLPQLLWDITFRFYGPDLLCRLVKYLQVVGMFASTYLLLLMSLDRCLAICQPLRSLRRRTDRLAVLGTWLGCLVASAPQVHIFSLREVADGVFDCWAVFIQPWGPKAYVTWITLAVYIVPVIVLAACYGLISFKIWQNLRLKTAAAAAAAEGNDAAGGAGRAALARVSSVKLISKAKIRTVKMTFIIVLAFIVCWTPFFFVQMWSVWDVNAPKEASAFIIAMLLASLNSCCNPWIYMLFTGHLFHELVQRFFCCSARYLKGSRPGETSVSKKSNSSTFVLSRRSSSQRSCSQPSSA
Experiment: Radioligand binding: competition of [^3 H]oxytocin binding to rat uterine membranes
Conditions: for IC50: 1 nM [^3 H]OT, rat uterus membranes, 60 minutes, 22° C., pH 7.4, read-out: IC50; for inhibition at 1 µM: read-out: % inhibition at 1000 nM; for inhibition at 10 µM: read-out: % inhibition at 10,000 nM; for inhibition at 0.1 µM: read-out: % inhibition at 100 nM
From the text: RADIOGLIGAND BINDING ASSAYS
The high affinity binding of [^3 H]

Cc1ccccc1N1CCN(C(=O)C2C3CCC(C)(C2NC(=O)C(C)(C)O)C3(C)C)CC1 (stereo not shown) [Example 17]
IC50: 16 nM

Cc1ccccc1N1CCN(S(=O)(=O)C[C@]23CC[C@H](C=C2C(=O)O)C3(C)C)CC1 [Example 57, 1-((7,7-Dimethyl-2-carboxy-bicyclo(2.2.1)hept-2-en-1-yl)methanesulfonyl)-4-(2-methylphenyl)piperazine]
inhibition at 1 µM: 78%

Cc1ccccc1N1CCN(C(=O)C2(CC(=O)O)C(=O)C3(C)CCC2C3(C)C)CC1 (stereo not shown) [Example 4, 1-(2-methylphenyl)-4-[(4,7,7-trimethyl-3-oxo-2-carboxymethyl-bicyclo[2.2.1]hept-2-yl)carbonyl]-piperazine]
inhibition at 1 µM: 53%

Cc1ccccc1N1CCN(S(=O)(=O)CC23CCC(CC2=O)C3(C)C)CC1=O (stereo not shown) [Example 66, 1-((7,7-Dimethyl-2-oxo-bicyclo(2.2.1)heptan-1-yl)methanesulfonyl)-4-(2-methylphenyl)-3-piperazinone]
inhibition at 10 µM: 5%

Cc1ccccc1N1CCN(S(=O)(=O)CC23CCC(CC2(O)C(C)CNCc2ccncc2)C3(C)C)CC1 (stereo not drawn) [Example 63, 1-((7,7-Dimethyl-2-exo-hydroxy-2-endo-2-(1-(4-pyridinyl)methylamino)-propyl-bicyclo(2.2.1)heptan-1-yl)methanesulfonyl)-4-(2-methylphenyl)-piperazine]
inhibition at 0.1 µM: 35%

Cc1ccccc1N1CCN(S(=O)(=O)CC23CCC(C=C2C(=O)NCCc2c[nH]cn2)C3(C)C)CC1 (stereo not shown) [Example 58, 1-((7,7-Dimethyl-2-(4-imidazolyl)ethylaminocarbonyl-bicyclo(2.2.1)hept-2-en-1-yl)methanesulfonyl)-4-(2-methylphenyl)piperazine]
IC50: 120 nM

Cc1ccccc1N1CCN(S(=O)(=O)C[C@]23CC[C@H](CC2=O)C3(C)C)CC1 [Example 37, 1-((7,7-Dimethyl-2-oxo-bicyclo(2.2.1)heptan-1-yl)methanesulfonyl)-4-(2-methylphenyl)piperazine]
IC50: 1000 nM

Cc1ccccc1N1CCN(S(=O)(=O)CC23CCC(CC2NC(=O)OCc2ccccc2)C3(C)C)CC1 (stereo not drawn) [Example 75, 1-((7,7-Dimethyl-2-endo-benzyloxycarbonylamino-bicyclo(2.2.1)heptan-1-yl)methanesulfonyl)-4-(2-methyl-phenyl)-piperazine]
inhibition at 1 µM: 35%

Cc1ccccc1N1CCN(S(=O)(=O)C[C@]23CC[C@H](CC2=CCNC(=O)Cc2c[nH]cn2)C3(C)C)CC1 [Example 53, 1-((7,7-dimethyl-2-(2-(4(5)-imidazolylacetyl)amino)-ethylidine-bicyclo(2.2.1)heptan-1-yl)methane-sulfonyl)-4-(2-methylphenyl)piperazine]
inhibition at 1 µM: 75%

Cc1ccccc1N1CCN(S(=O)(=O)CC23CCC(CC2N(C)C(=O)[C@@H](N)CCS(C)(=O)=O)C3(C)C)CC1 (stereo partly drawn) [Example 77, 1-((7,7-dimethyl-2-endo-methyl(2S-amino-4-(methylsulfonyl)butanoyl)amino-bicyclo(2.2.1)heptan-1-yl)methanesulfonyl)-4-(2-methylphenyl)-piperazine]
IC50: 9.2 nM

Cc1ccccc1N1CCN(S(=O)(=O)CC23CCC(CC2C(=O)O)C3(C)C)CC1 (stereo not drawn) [Example 60, 1-((7,7-Dimethyl-2-endo-carboxy-bicyclo(2.2.1)heptan-1-yl)methanesulfonyl)-4-(2-methylphenyl)piperazine]
inhibition at 0.1 µM: 34%

Cc1ccccc1N1CCN(S(=O)(=O)CC23CCC(CC2NC(=O)[C@H](CCS(C)(=O)=O)N(C)C)C3(C)C)CC1 (stereo partly drawn) [Example 74, 1-((7,7-Dimethyl-2-endo-(2S-(dimethylamino)-4-(methylsulfonyl)butyramido)-bicyclo(2.2.1)heptan-1-yl)methanesulfonyl)-4-(2-methylphenyl)piperazine]
inhibition at 1 µM: 54%

Cc1ccccc1N1CCN(S(=O)(=O)CC23CCC(CC2(O)C(C)CNC(=O)C2CCNCC2)C3(C)C)CC1 (stereo not shown) [Example 90]
IC50: 30 nM

Cc1ccccc1N1CCN(S(=O)(=O)CC23CCC(CC2(O)C(C)CNC(=O)C2CCCN(CCC(=O)O)C2)C3(C)C)CC1 (stereo not shown) [Example 85]
inhibition at 0.1 µM: 66%

Cc1ccccc1N1CCN(C(=O)C2C3CCC(C)(C2NC(=O)C(CCS(C)(=O)=O)NC(=O)OC(C)(C)C)C3(C)C)CC1 (stereo not drawn) [Example 9, 1-(2-methylphenyl)-4-[(4,7,7-trimethyl-3-exo-(4-methylsulfonyl-2-t-butoxycarbonylamino)butanoylaminobicyclo[2.2.1]hept-2-endo-yl)carbonyl]-piperazine]
IC50: 6.5 nM

Cc1ccccc1N1CCN(C(=O)C2C3CCC(C)(C2NC(=O)C(O)CO)C3(C)C)CC1 (stereo not shown) [Example 18, 1-(2-methylphenyl)-4-[(4,7,7-trimethyl-3-(2,3-dihydroxy)propionylaminobicyclo[2.2.1]hept-2-yl)carbonyl]-piperazine]
IC50: 120 nM

Cc1ccccc1N1CCN(C(=O)C2(C)C(=O)C3(C)CCC2C3(C)C)CC1 (stereo not shown) [Example 3, 1-(2-methylphenyl)-4-[(2,4,7,7-tetramethyl-3-oxobicyclo[2.2.1]hept-2-yl)carbonyl]-piperazine]
IC50: 150 nM

Cc1ccccc1N1CCN(S(=O)(=O)CC23CCC(CC2(O)C(C)CNC(=O)C2CCN(CCC(=O)O)CC2)C3(C)C)CC1 (stereo not drawn) [Example 92, 1-((7,7-Dimethyl-2-exo-hydroxy-2-endo-2-(1-(4-(1-carboxyethyl)piperidinylcarbonyl)amino)propyl-bicyclo-(2.2.1)heptan-1-yl)methanesulfonyl)-4-(2-methylphenyl)piperazine]
inhibition at 0.1 µM: 66%

Cc1ccccc1N1CCN(C(=O)C2(CC#N)C(=O)C3(C)CCC2C3(C)C)CC1 (stereo not shown) [Example 5]
inhibition at 1 µM: 27%

Cc1ccccc1N1CCN(S(=O)(=O)CC23CCC(CC2(O)C(C)CNC(=O)[C@@H]2CCCN2CC(=O)O)C3(C)C)CC1 (stereo partly shown) [Example 89]
IC50: 14 nM

Cc1ccccc1N1CCN(S(=O)(=O)CC23CCC(CC2NC(=O)Cc2c[nH]cn2)C3(C)C)CC1 (stereo not shown) [Example 79]
IC50: 26 nM

Cc1ccccc1N1CCN(S(=O)(=O)C[C@]23CC[C@H](C[C@]2(O)CNCC(C)C)C3(C)C)CC1 [Example 55, 1-((7,7-Dimethyl-2-exo-hydroxy-2-endo-isobutylamino-methylbicyclo(2.2.1)heptan-1-yl)methanesulfonyl)-4-(2-methylphenyl)piperazine]
inhibition at 1 µM: 72%

CCOC(=O)CCCN1CCC[C@H]1C(=O)NCC(C)[C@@]1(O)C[C@H]2CC[C@]1(CS(=O)(=O)N1CCN(c3ccccc3C)CC1)C2(C)C (stereo partly drawn) [Example 41, 1-((7,7-Dimethyl-2-exo-hydroxy-2-endo-2-(1-(1-N-(ethoxycarbonylpropyl)prolyl)amino)propyl-bicyclo(2.2.1)heptan-1-yl)methanesulfonyl)-4-(2-methylphenyl)piperazine]
IC50: 100 nM

Cc1ccccc1N1CCN(S(=O)(=O)C[C@]23CC[C@H](CC2=CCN)C3(C)C)CC1 [Example 52, 1-((7,7-dimethyl-2-(2-amino)ethylidine-bicyclo-(2.2.1)heptan-1-yl)methanesulfonyl)-4-(2-methyl-phenyl)piperazine]
inhibition at 0.1 µM: 36%

Cc1ccccc1N1CCN(S(=O)(=O)C[C@]23CC[C@H](CC2=CCNCC(C)C)C3(C)C)CC1 [Example 50, 1-((7,7-dimethyl-2-(2-isobutylamino)ethylidine-bicyclo(2.2.1)heptan-1-yl)methanesulfonlyl)-4-(2-methylphenyl)piperazine]
inhibition at 1 µM: 44%

Cc1ccccc1N1CCN(C(=O)C2C(=NO)C3(C)CCC2C3(C)C)CC1 (stereo not drawn) [Example 6, 1-(2-methylphenyl)-4-[(4,7,7-trimethyl-3-hydroxyimino-bicyclo[2.2.1]-hept-2-endo-yl)carbonyl]-piperazine]
IC50: 82 nM

COC(=O)C1=C[C@H]2CC[C@]1(CS(=O)(=O)N1CCN(c3ccccc3C)CC1)C2(C)C [Example 56, 1-((7,7-Dimethyl-2-methoxycarbonyl-bicyclo(2.2.1)hept-2-en-1-yl)methanesulfonyl)-4-(2-methylphenyl)-piperazine]
inhibition at 1 µM: 38%

Cc1ccccc1N1CCN(S(=O)(=O)C[C@]23CC[C@H](C[C@]2(O)C(C)CNC(=O)Cc2c[nH]cn2)C3(C)C)CC1 (stereo partly drawn) [Example 43, 1-((7,7-Dimethyl-2-exo-hydroxy-2-endo-2-(1-(4(5)-imidazolylacetyl)amino)propyl-bicyclo(2.2.1)heptan-1-yl)methanesulfonyl)-4-(2-methylphenyl)piperazine]
IC50: 8 nM

CC(=O)NC(CC=C1CC2CCC1(CS(=O)(=O)N1CCN(c3ccccc3C)CC1)C2(C)C)C(=O)O (stereo not shown) [Example 65, 1-((7,7-Dimethyl-2-(3-acetamido-3-carboxy)propylidine-bicyclo(2.2.1)heptan-1-1 methanesulfonyl)-4-2-methylphenyl)piperazine]
inhibition at 10 µM: 16%

Cc1ccccc1N1CCN(S(=O)(=O)C[C@]23CC[C@H](C[C@]2(O)C(C)CNC(=O)[C@@H]2CCCN2)C3(C)C)CC1 (stereo partly drawn) [Example 40, 1-((7,7-Dimethyl-2-exo-hydroxy-2-endo-2-(1-(1-prolyl)-amino)propylbicyclo(2.2.1)heptan-1-yl)methanesulfonyl)-4-(2-methylphenyl)piperazine]
IC50: 34 nM

Cc1ccccc1N1CCN(S(=O)(=O)C[C@]23CC[C@H](C[C@@H]2NC(=O)C(C)c2c[nH]cn2)C3(C)C)CC1 (stereo partly drawn) [Example 80, 1-((7,7-Dimethyl-2-endo-(2-(4-imidazolyl)propanoyl)-amino-bicyclo(2.2.1)heptan-1-yl)methanesulfonyl)-4-(2-methylphenyl)piperazine]
IC50: 12 nM
